According to patent publication US10342796B2, “Acrylanilide derivative, preparation method, and applications thereof in pharmacy” (Ancureall Pharmaceutical (Shanghai) Co., Ltd., priority 2015, dated 2019):

Columns and labels:
Assay in all cases: Growth inhibition GI50 in vitro (CCK8/MTT, 72 h)
Assay type in all cases: cell-based, human
H1975 (EGFR L858R/T790M) = conditions: Homo sapiens, NCI-H1975; EGFR mutant cell line; range of GI50; read-out: GI50 H1975
HCC827 (EGFR dE746-A750) = conditions: Homo sapiens, HCC827; EGFR mutant cell line; range of GI50; read-out: GI50 HCC827
PC-9 (EGFR dE746-A750) = conditions: Homo sapiens; EGFR mutant cell line; range of GI50; read-out: GI50 PC-9
[1] = test system: PC-9ER (EGFR delE746-A750/T790M); conditions: Homo sapiens, PC-9/ER; EGFR mutant cell line; range of GI50; read-out: GI50 PC9ER
N87 (HER2 Amp) = conditions: Homo sapiens; HER2 positive cell line; range of GI50; read-out: GI50 N87
AU565 (Her2 amp) = conditions: Homo sapiens, AU565; HER2 positive cell line; range of GI50; read-out: GI50 AU-565
SK-BR-3 (Her2 amp) = conditions: Homo sapiens, SK-BR-3; HER2 positive cell line; range of GI50; read-out: GI50 SK-BR-3
[2] = test system: A431 (EGFR WT, amplification and high expression); conditions: Homo sapiens, A-431; EGFR wild type cell line; range of GI50; read-out: GI50 A431
A549 (EGFR WT) = conditions: Homo sapiens, A549; EGFR wild type cell line; range of GI50; read-out: GI50 A549
[3] = test system: H1299 (EGFR wt, Nras Q61K); conditions: Homo sapiens, NCI-H1299; EGFR wild type cell line; range of GI50; read-out: GI50 H1299
[4] = test system: H460 (EGFR wt, Kras G61H); conditions: Homo sapiens, NCI-H460; EGFR wild type cell line; range of GI50; read-out: GI50 H460

GI50 (H1975 (EGFR L858R/T790M)) [nM]	GI50 (HCC827 (EGFR dE746-A750)) [nM]	GI50 (PC-9 (EGFR dE746-A750)) [nM]	GI50 [1] [nM]	GI50 (SK-BR-3 (Her2 amp)) [nM]	GI50 [2] [nM]	GI50 (A549 (EGFR WT)) [nM]	GI50 [3] [nM]	GI50 [4] [nM]	Compound	GI50 (N87 (HER2 Amp)) [nM]	GI50 (AU565 (Her2 amp)) [nM]
10 to 100	10 to 100	10 to 100	10 to 100	10 to 100	100 to 1000	> 1000	> 1000	> 1000	C=CC(=O)Nc1cc(Nc2nccc(-n3ccc4c(C)cccc43)n2)c(OC)cc1N(C)CCN(C)C [Compound 98, N-(5-(4-(4-methyl-1H-indol-1-yl)-pyrimidin-2-ylamino)-2-(2-(dimethylamino-ethyl)-methyl-amino)-4-methoxyl-phenyl)-acrylamide]	10 to 100	100 to 1000
< 10	< 10	< 10	< 10	< 10	10 to 100	> 1000	> 1000	> 1000	C=CC(=O)Nc1cc(Nc2cc(Nc3ccc(F)c(Cl)c3)ncn2)c(OC)cc1OCCN(C)C [Compound 148, N-(5-(6-(3-chloro-4-fluoro-phenylamino)-pyrimidin-4-ylamino)-2-(2-dimethylamino-ethoxyl)-4-methoxyl-phenyl)-acrylamide]	10 to 100	< 10
10 to 100	< 10	10 to 100	10 to 100	10 to 100	100 to 1000	> 1000	> 1000	> 1000	C=CC(=O)Nc1cc(Nc2nccc(Nc3cccc(Br)c3)n2)c(OC)cc1N(C)CCN(C)C [Compound 1, N-(5-(4-(3-bromophenylamino)-pyrimidin-2-ylamino)-2-(2-(dimethylamino-ethyl)-methyl-amino)-4-methoxyl-phenyl)-acrylamide]	10 to 100	10 to 100
< 10	10 to 100	10 to 100	< 10	100 to 1000	100 to 1000	> 1000	> 1000	> 1000	C=CC(=O)Nc1cc(Nc2nccc(-n3ccc4ccc(Cl)cc43)n2)c(OC)cc1N(C)CCN(C)C [Compound 61, N-(5-(4-(6-chloro-1H-indol-1-yl)-pyrimidin-2-ylamino)-2-((2-(dimethylamino)ethyl)-methyl-amino)-4-methoxyl-phenyl)-acrylamide]	100 to 1000	100 to 1000
< 10	< 10	10 to 100	10 to 100	100 to 1000	100 to 1000	> 1000	> 1000	> 1000	C=CC(=O)Nc1cc(Nc2nccc(-n3ccc4cc(F)ccc43)n2)c(OC)cc1N(C)CCN(C)C [Compound 83]	10 to 100	100 to 1000
< 10	< 10	< 10	< 10	< 10	10 to 100	> 1000	> 1000	> 1000	C=CC(=O)Nc1cc(Nc2cc(Nc3ccc(F)c(Cl)c3)ncn2)c(OC)cc1N1CCC(N2CCOCC2)CC1 [Compound 143, N-(5-(6-(3-chloro-4-fluoro-phenylamino)-pyrimidin-4-ylamino)-4-methoxyl-2-(4-morpholin-4-yl-piperidin-1-yl)-phenyl)-acrylamide]	< 10	< 10
10 to 100	< 10	< 10	10 to 100	> 1000	> 1000	> 1000	> 1000	> 1000	C=CC(=O)Nc1cc(Nc2cc(-c3cn(C4CCCC4)c4ccc(F)cc34)ncn2)c(OC)cc1N(C)CCN(C)C [Compound 193, N-(5-(6-(5-fluoro-1-cyclopentyl-1H-indol-3-yl)-pyrimidin-4-ylamino)-4-methoxyl-2-((2-dimethylamino-ethyl)-methyl-amino)-phenyl)-acrylamide]	100 to 1000	100 to 1000
10 to 100	10 to 100	10 to 100	10 to 100	10 to 100	100 to 1000	> 1000	> 1000	> 1000	C=CC(=O)Nc1cc(Nc2ncnc(Nc3ccc(F)c(Cl)c3)n2)c(OC)cc1N(C)CCN(C)C [Compound 109, N-(5-(4-(3-chloro-4-fluoro-phenylamino)-[1,3,5]triazin-2-ylamino)-2-((2-dimethylamino-ethyl)-methyl-amino)-4-methoxyl-phenyl)-acrylamide]	10 to 100	10 to 100
